The record followed here is patent publication US20230181535A1, “UBIQUITIN-LIGASE INHIBITORS FOR THE TREATMENT OF CANCER” (FUNDACIÓN PROFESOR NOVOA SANTOS, priority 2020, published 2023).

Data set [1] deals with T1, E3 ubiquitin-ligase Hakai (Mus musculus, UniProt Q9JIY2).
T1 construct: expressed in transfected cells; host or cells: HEK293T
T1 sequence (Q9JIY2 1-491): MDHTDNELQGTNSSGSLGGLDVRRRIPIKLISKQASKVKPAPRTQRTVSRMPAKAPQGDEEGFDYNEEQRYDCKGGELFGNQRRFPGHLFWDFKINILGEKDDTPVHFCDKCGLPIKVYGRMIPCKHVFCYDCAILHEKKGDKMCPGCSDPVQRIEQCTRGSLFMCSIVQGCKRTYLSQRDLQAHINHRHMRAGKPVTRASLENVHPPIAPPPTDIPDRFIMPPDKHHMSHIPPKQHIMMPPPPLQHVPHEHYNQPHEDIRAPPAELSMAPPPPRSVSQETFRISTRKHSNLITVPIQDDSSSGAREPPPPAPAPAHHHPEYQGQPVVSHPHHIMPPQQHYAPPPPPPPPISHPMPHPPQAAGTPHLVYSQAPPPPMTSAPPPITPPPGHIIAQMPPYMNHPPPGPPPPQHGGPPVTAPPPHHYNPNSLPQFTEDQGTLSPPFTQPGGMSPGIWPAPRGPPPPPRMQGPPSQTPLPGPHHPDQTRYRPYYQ
In words: In vivo Hakai-dependent ubiquitination assay in 293T cells. The format is cell-based. The conditions noted are these: vs DMSO; for Hakai-induced ubiquitination: HEK293T cells transfected with Hakai and ubiquitin. The procedure: For ubiquitination assays, 750.000 HEK293T cells were seeded in 6-well cell culture plates and after 24 h were transfected with 0.25 μg Src, 0.75 μg Flag-Hakai, and 0.5 μg HA-ubiquitin with Lipofectamin 2000 (Invitrogen, UK). Six hours after transfection cells were treated with indicated concentrations of Hakin-1, Hakin-5 or the rest of the compounds tested for 36 h. Whole cell extracts were obtained in lysis buffer (20 mM Tris-HCl pH 7.5, 150 mM NaCl and 1% Triton X-100) containing 10 μg/ml leupeptin, 10 μg/ml aprotinin and 1 mM phenylmethanesulphonyl fluoride (PMSF), supplemented with 10 mM N-ethylmaleimide. Cells were harvested and subjected to western blotting using anti-HA antibody to detect ubiquitination.

In data set [2] the test system is HCT116 colon cancer cells. Kind of data set: MTT cell viability assay, HCT116. The format is cell-based, human. Particulars: concentrations tested in the previous assays. The procedure:
(§1) For cytotoxicity assays, 1×10^4 cells were seeded per well into a 96-well plate. After 24 h cells were treated with the indicated inhibitors for 72 h and a MTT colorimetric cell viability assay was performed following manufacturer's instructions (Sigma Aldrich, St Louis, Mo.). Absorbance was measured at 570 and 630 nm using a Multiskan Plus Reader (Nanoquant Infinite M200 Tecan Trading AG, Switzerland). Dose-response curves were designed with Graph Pad Prism Software and the half-maximal inhibitory concentration (IC50) values were calculated. Represented data are the mean±SEM of at least three independent experiments with six replicates per condition.
(In general: Tetrazolium dyes change colour on reduction, which living cells bring about.)

The subject of data set [3] is non-cancerous HEK293T cells. In words: MTT cell viability assay, HEK293T. The format is cell-based, human. The conditions noted are these: concentrations tested in the previous assays. The procedure:
as §1

Data set [4] has as its system HT-29 human colorectal adenocarcinoma cell line. In words: E-cadherin at cell-cell contacts, Vala SIM / CyteSeer Cell-Cell Junction Algorithm, HT-29. The conditions noted are these: for E-cadherin levels at cell-cell contacts: 48 hours, vs DMSO vehicle control; for increase of E-cadherin expression levels: 24 hours. It is filed as cell-based. The procedure:
(§2) For western blot analysis, cells were treated with the indicated inhibitors for 48 h and the whole cell extracts were obtained as described previously. Twenty micrograms of lysates were resolved on a 10% polyacrilamide SDS-PAGE followed by western blot analysis performed as previously described. For immunofluorescence assays cells were grown for 24 h on glass coverslips and treated with the indicated inhibitors for 48 h. Cells were fixed with 4% PFA for 15 min, permeabilized with 0.5% […] and incubated with E-cadherin antibody for 2 h. Coverslips were incubated with fluorescein-tagged secondary antibody (Dakopatts, Sweden) for […]. Finally coverslips were mounted with ProLong Gold antifade reagent (LifeTech, UK) and images were taken in epifluorescence microscope (Olympus) using 40× objective. Immunofluorescence of E-cadherin and DNA content analysis for FIGS. 22-23 were performed culturing of HT-29 human colorectal adenocarcinoma cell line in 384-well plates with densities of 3,000 cells per well in a total volume of 25 μl. After the completion of the staining, four images (2×2 array) of each well were taken with Vala Sciences' SIM™ with a 20× objective. Each image was acquired as a SIM Synthetic Focus with a z-stack range of 6 μm with 1 μm steps. The SIM Synthetic Focus feature will compile a “best focus” images from multiple images. One set of SIM Synthetic Focus images were taken in the DAPI channel for Hoechst 33342 staining, and another set of images were taken in the FITC channel for anti-E-cadherin-AlexaFluor488 labeling and analysed by Structured Illumination Microscopy (SIM™) platform to image the cells and Vala's CyteSeer® Cell-Cell Junction Algorithm to quantify the degree of expression and intracellular location of E-cadherin Vala's CyteSeer® Software can also measure relative DNA content by analyzing Total Integrated Intensity (TII) of the Nuclear Image (Ni) on the Nuclear Mask (Nm). This analysis was performed by Vala Science. Twenty compounds from were assayed in a “blinded” manner, at 2 test concentrations in 6 replicate wells for first assay and 3 replicate for second assay.

In data set [5] the test system is HT-29 cells. In words: Cell cycle (DNA content) analysis with CyteSeer, HT-29. The format is cell-based, human. The procedure: as §2
The subject of data set [6] is HT29 cell line. In words: Invasion assay, HT29 (dose/response). The format is cell-based, human. The conditions noted are these: for cell invasion: treated 48 h, 1 μM, 10 μM, 50 μM, vs DMSO. As for the experimental part:
[The procedure below names another cell line; the source lists this cell line under the same test.] For invasion assays, cells were treated with Hakin-1 or DMSO as vehicle for 48 h using 1% FBS during the last 24 hours. 3×10^5 MDCK, MDCK-Hakai or LoVo cells were seeded in a cell invasion chamber (Cell invasion assay kit, Chemicon International) containing medium with 2% FBS. After 72 hours for MDCK and MDCK-Hakai Invasive and 16 h for LoVo cells, invasive cells invaded that reach the lower chamber containing 30% FBS were fixed and stained with crystal violet (Sigma Aldrich, St Louis, Mo.) following the manufacturer's specifications. For migration assays, HT29 cells were cultured with Hakin-1 or DMSO as vehicle for 48 h, using medium without serum the last 24 h. In the cell migration chamber were seeded 3×10^5 HT29 cells (Cell migration kit, Millipore, Bedford, Mass.) containing medium without serum. After 16 h, migrated cells in the lower chamber containing serum with 30% FBS were stained with crystal violet and counted following the manufacturer's specifications. For both invasion and migration assays cells were counted in five fields photographed with an Olympus microscope using a 20× objective, experiments were performed in triplicates for each condition and the assays were repeated at least three times. Results are expressed as mean±SD.

In data set [7] the test system is HT-29 cells. Kind of data set: Immunofluorescence of E-cadherin, HT-29. The format is cell-based, human. The conditions noted are these: for E-cadherin expression at cell-cell contacts (immunofluorescence, Image J): 48 hours, 5-100 μM, vs DMSO vehicle control. The procedure:
as §2

The subject of data set [8] is Colon cancer HCT116 cells. In words: BrdU proliferation assay, HCT116. It is filed as cell-based, human. Particulars: 48 h. The procedure:
(§3) For BrdU assays, 1×10^4 of indicated cells were plated per well into a 96-well plate. After 24 h, cells were treated with the indicated inhibitors for 48 h. Three independent experiments were plated with six replicates per each condition. Cells were treated with […] BrdU for 2 h. BrdU incorporation into newly synthesized DNA was measured using a cell proliferation colorimetric immunoassay kit according to the manufacturer's instructions (Roche, Switzerland). Results are expressed as mean±S.D. Results are represented as percentage of positive cells (mean±S.D) of three independent experiments.

The test system of data set [9] is normal epithelial MDCK cell line. In words: MTT cell viability assay, MDCK. It is filed as cell-based. Particulars: compared with Hakai-MDCK. The procedure: as §1
The subject of data set [10] is Hakai-MDCK cell lines (clone 4 and clone 11). In words: MTT cell viability assay, Hakai-MDCK. The format is cell-based. Particulars: Hakai-MDCK clone 4 and clone 11, compared with MDCK. The procedure:
as §1

Data set [11] relates to HT-29 cells. Kind of data set: Phase-contrast cell phenotype, HT-29. The format is cell-based, human. As for the experimental part:
(§4) MDCK, HEK293T, HepG2, MCF7 and ACHN cells were cultured in Dulbecco's Modified Eagles Medium (DMEM). MDCK stably expressing Hakai cells (Hakai-MDCK) were previously reported and were growth in DMEM with G418 (800 μg/ml). […] LoVo and PC-3 cells were cultured in F-12K Medium (Kaighn's Modification of Ham's F-12 Medium) and HT-29 and HCT116 cells in McCoy's 5a Medium Modified. 5637 cells were cultured in RPMI medium. All culture media were supplemented with 1% penicillin/streptomycin and 10% of heat-inactivated fetal bovine serum (FBS) at 37° C. in a humidified incubator with 5% CO2. Cells were monthly tested for mycoplasma contamination and used only for 1-3 months after defrosted. LoVo and HT29 cells were authenticated with the StemElite ID system (Promega). For phase-contrast images, culture cells were photographed with a Nikon Eclipse-TI microscope.

The test system of data set [12] is LoVo cells. Kind of data set: Phase-contrast cell phenotype, LoVo. It is filed as cell-based. The procedure: as §4
In data set [13] the test system is Hakai-transformed MDCK cells. In words: Phase-contrast cell phenotype, Hakai-MDCK. The format is cell-based. The conditions noted are these: Hakai-transformed MDCK cells (mesenchymal phenotype). The procedure:
as §4

Data set [14] has as its system epithelial MDCK cells. Kind of data set: Phase-contrast cell phenotype, MDCK. The format is cell-based. As for the experimental part:
as §4

In data set [15] the test system is HT-29 cells. In words: Western blotting of EMT markers, HT-29. It is filed as cell-based, human. Particulars: 48 h. As for the experimental part: as §2
For orientation: A western blot detects proteins with antibodies after separation by electrophoresis.

Data set [16] has as its system HT29 cells. In words: BrdU proliferation assay, HT29. The conditions noted are these: 48 h. It is filed as cell-based, human. The procedure: as §3
Data set [17] has as its system LoVo cells. Kind of data set: BrdU proliferation assay, LoVo. The format is cell-based. The conditions noted are these: 48 h. As for the experimental part: as §3

`O=C(O)c1ccc(-n2nnnc2SC(c2ccccc2)c2ccc(Cl)cc2)cc1` (stereo not shown) [Compound K1]: in data set [1], the Hakai-induced ubiquitination result is “reduced ubiquitination at 20 μM and 100 μM”. Moreover, the “cytotoxic effect (cell viability, MTT)” value in data set [2] is recorded as “no cytotoxic effect”. Besides, the “cytotoxic effect (cell viability, MTT)” value in [3] is reported as “no cytotoxic effect”. Further, in data set [4] (100 μM), the “E-cadherin levels at cell-cell contacts” value was “significantly increased E-cadherin levels at cell-cell contacts”. Further, in data set [5] (100 μM, 48 hours), the cell cycle result is on record as “arrested the cells in G0/G1 phase” and the cell numbers result is listed as “reduced the cell numbers”. The cell invasion entry in data set [6] is given as “reduce cell invasion”.

Regarding `Cc1ccc(NC(=O)CSc2nnnn2-c2cccc(C(=O)O)c2)cc1C` [Compound K2], the “E-cadherin levels at cell-cell contacts” value in data set [4] (100 μM or 20 μM) was “Significant differences were also detected”. Moreover, in [5] (100 μM, 48 hours), the cell cycle result was “arrested the cells in G0/G1 phase” and the cell numbers result is “reduced the cell numbers”.

As to `Cc1ccc(CNC(=O)CSc2nc3sccc3c(=O)n2-c2ccc(C(=O)O)cc2)cc1` [Compound K8], in [1], the Hakai-induced ubiquitination result is on record as “reduce ubiquitination at 20 μM”. Besides, the figures for the “cytotoxic effect (cell viability, MTT)” value in data set [2] and in [3] were “inhibitory response in cancer cells” and “no effect was detected in non-tumour cells”, respectively. Also, the “E-cadherin expression at cell-cell contacts (immunofluorescence, Image J)” value in data set [7] is “increase E-cadherin levels at cell-cell contacts”. Also, the “cell proliferation (BrdU)” value in data set [8] was “inhibit cell proliferation”. Also, the IC50 in [6] (Homo sapiens, HT-29, treated 48 h, read-out: concentration at which 50% inhibition of invasion was achieved) was approximately 1 µM. Moreover, the cell invasion result in [6] is given as “reduce cell invasion”.

As for `O=C(O)c1ccc(-n2nnnc2SC2CCc3ccccc3NC2=O)cc1` (stereo not shown) [Compound K33], in data set [7], the “E-cadherin expression at cell-cell contacts (immunofluorescence, Image J)” value is recorded as “increase E-cadherin levels at cell-cell contacts”.

Take `CC(/C=C/C(=O)O)=C\CC(O)/C(C)=C/CCC(C)C(C)O` (stereo not shown) [Hakin-5, (2E,4E,8E)-7,13-Dihydroxy-4,8,12-trimethyl-2,4,8-tetradecatrienoic acid, reference compound]: in [1] (293T cells transfected with Src, Flag-Hakai and HA-ubiquitin, western blotting anti-HA), the “ubiquitination mediated by Hakai” value is on record as “no effect was detected on Hakai-mediated ubiquitination”. Also, the “sensitivity to treatment (cell viability, MTT)” value in data set [9] is “more resistant”; in [10], “more sensitive”. The “cell phenotype by phase contrast” value in data set [11] is reported as “modestly induce an epithelial phenotype”; in [12], “modestly induce an epithelial phenotype”; in data set [13], “induction of an epithelial phenotype”; in [14], “no effect was observed”. In addition, the “EMT markers expression (E-Cadherin, Cortactin, Hakai)” value in [15] (HT29) is recorded as “does not affect the EMT markers expression”. Moreover, the “E-cadherin levels (western blotting)” value in [15] (HT-29) is “no effect by western-blotting or immunofluorescence was detected on E-cadherin protein levels”. Further, the “E-cadherin levels at cell-cell contacts (immunofluorescence)” value in [7] (48 h, vs DMSO) was “no effect by western-blotting or immunofluorescence was detected on E-cadherin protein levels”. For the same molecule, the “cell proliferation (BrdU)” value in data set [16] and in data set [17] was “no effect was seen” throughout.

Regarding `COC(=O)Nc1nc2ccc(C(=O)c3cccs3)cc2[nH]1` [nocodazole], the results for the “increase of E-cadherin expression levels” value in data set [4] (250 ng/ml), in data set [4] (500 ng/ml) and in [4] (1000 ng/ml) were 32%, 42% and 47%, respectively. The cell cycle result in data set [5] (24 hours, vs DMSO vehicle control) was “dramatic shift towards G2/M phase arrest”.
